Blank lines part the entries; values can stand above or below the molecule they belong to.
Key:
C-33-A = test: Antiproliferative activity against human C-33-A cells assessed as reduction in cell viability measured after 48 hrs by MTT assay; type: functional, cell-based
T47D = test: Antiproliferative activity against human T47D cells assessed as reduction in cell viability measured after 48 hrs by MTT assay; type: functional, cell-based
MDA-MB-361 = test: Antiproliferative activity against human MDA-MB-361 cells assessed as reduction in cell viability measured after 48 hrs by MTT assay; type: functional, cell-based; settings: MDA-MB-361, 48 h
MCF7 [1] = test: Antiproliferative activity against human MCF7 cells assessed as reduction in cell viability measured after 48 hrs by MTT assay; type: functional, cell-based; settings: MCF7, 48 h
MDA-MB-231 [2] = test: Antiproliferative activity against human MDA-MB-231 cells assessed as reduction in cell viability measured after 48 hrs by MTT assay; type: functional, cell-based; settings: MDA-MB-231, 48 h
[3] = molecular target: T1, Prostaglandin G/H synthase 2 (Homo sapiens) (UniProt P35354); test: Inhibition of COX-2 (unknown origin) at 50 uM by fluorescence based method relative to control
T1 sequence (whole entry): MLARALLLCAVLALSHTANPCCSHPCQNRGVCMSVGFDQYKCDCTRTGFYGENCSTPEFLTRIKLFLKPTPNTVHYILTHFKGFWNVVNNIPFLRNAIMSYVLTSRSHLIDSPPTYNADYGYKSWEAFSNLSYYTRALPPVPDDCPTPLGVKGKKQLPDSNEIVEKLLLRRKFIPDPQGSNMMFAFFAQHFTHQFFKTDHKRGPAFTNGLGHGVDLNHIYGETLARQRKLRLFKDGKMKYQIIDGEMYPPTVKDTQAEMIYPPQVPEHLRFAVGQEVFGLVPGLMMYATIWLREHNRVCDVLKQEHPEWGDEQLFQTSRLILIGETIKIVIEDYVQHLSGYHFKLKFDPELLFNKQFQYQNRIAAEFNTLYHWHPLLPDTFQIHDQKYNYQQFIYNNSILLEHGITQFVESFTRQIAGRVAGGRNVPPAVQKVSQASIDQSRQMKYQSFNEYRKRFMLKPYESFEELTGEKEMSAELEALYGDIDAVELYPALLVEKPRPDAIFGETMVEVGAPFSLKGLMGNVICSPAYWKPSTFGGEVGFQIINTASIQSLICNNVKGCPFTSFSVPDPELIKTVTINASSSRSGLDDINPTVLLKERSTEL

MDA-MB-231 [4] = test: Antiproliferative activity against human MDA-MB-231 cells assessed as inhibition of cell growth incubated for 72 hrs by Celltiter Glo assay; type: functional, cell-based; settings: MDA-MB-231, 72 h
HEK293 [5] = test: Antiproliferative activity against human HEK293 cells assessed as inhibition of cell proliferation measured after 24 hrs by MTT assay; type: functional, cell-based; settings: HEK293, 24 h
MCF7 [6] = test: Antiproliferative activity against human MCF7 cells assessed as cell growth inhibition measured after 24 hrs by MTT assay; type: functional, cell-based; settings: MCF7, 24 h
MCF7 [7] = test: Antiproliferative activity against human MCF7 cells assessed as reduction in cell viability measured after 24 hrs by MTT assay; type: functional, cell-based; settings: MCF7, 24 h
MDA-MB-231 [8] = test: Antiproliferative activity against human MDA-MB-231 cells assessed as inhibition of cell growth by MTT assay; type: functional, cell-based
MCF7 [9] = test: Antiproliferative activity against human MCF7 cells assessed as reduction in cell viability; type: functional, cell-based
MCF7 [10] = test: Antiproliferative activity against human MCF7 cells assessed as reduction in cell proliferation incubated for 48 hrs by MTT assay; type: functional, cell-based; settings: MCF7, 48 h
MCF-10A = test: Antiproliferative activity against human MCF-10A cells assessed as reduction in cell proliferation incubated for 48 hrs by MTT assay; type: functional, cell-based
MDA-MB-231 [11] = test: Antiproliferative activity against human MDA-MB-231 cells assessed as reduction in cell proliferation incubated for 48 hrs by MTT assay; type: functional, cell-based; settings: MDA-MB-231, 48 h
[12] = Selectivity index, ratio of IC50 for antiproliferative activity against human MCF-10A cells to IC50 for antiproliferative activity against human MCF7 cells by MTT assay; type: toxicity, cell-based; settings: MCF-10A cells versus MCF7 cells, read-out: Selectivity Index
MCF7 [13] = test: Antiproliferative activity against Doxorubicin-resistant human MCF7 cells assessed as reduction in cell proliferation incubated for 48 hrs by MTT assay; type: functional, cell-based; settings: MCF7, 48 h
HEK293 [14] = test: Antiproliferative activity against human HEK293 cells assessed as inhibition of cell growth measured after 24 hrs by MTT assay; type: functional, cell-based; settings: HEK293, 24 h
MCF7 [15] = test: Antiproliferative activity against human MCF7 cells assessed as inhibition of cell proliferation incubated for 24 hrs by MTT assay; type: functional, cell-based; settings: MCF7, 24 h
MDA-MB-231 [16] = test: Antiproliferative activity against human MDA-MB-231 cells assessed as inhibition of cell proliferation incubated for 24 hrs by MTT assay; type: functional, cell-based; settings: MDA-MB-231, 24 h
MDA-MB-231 [17] = test: Antiproliferative activity against human MDA-MB-231 cells assessed as reduction in cell viability measured after 24 hrs by MTT assay; type: functional, cell-based; settings: MDA-MB-231, 24 h

Structure (SMILES): C[C@H]1[C@@H](CC(=O)OC[C@H]2C[C@H]3[C@@H]4CCc5cc(OCc6ccccc6)ccc5[C@H]4CC[C@]3(C)[C@H]2O)OC2O[C@]3(C)CC[C@H]4[C@H](C)CC[C@@H]1[C@@]24OO3 (stereo partly drawn)
EC50 (C-33-A): 0.15 µM
EC50 (T47D): 0.93 µM
EC50 (MDA-MB-361): 0.18 µM
EC50 (MCF7 [1]): 0.45 µM
EC50 (MDA-MB-231 [2]): 0.86 µM

Structure (SMILES): OC[C@H]1O[C@@H](Cc2cc(-c3c[nH]c4ccccc34)on2)[C@H](O)[C@@H](O)[C@@H]1O
inhibition [3]: 95%
IC50 (MDA-MB-231 [4]): 35.5 µM

Structure (SMILES): COc1cccc(OC)c1C1CC(c2ccc(OCc3cn(CCCN4C(=O)c5cccc6cccc(c56)C4=O)nn3)cc2)=NN1C(C)=O (stereo not drawn)
IC50 (HEK293 [5]): > 100 µM
IC50 (MCF7 [6]): 62.2 µM
IC50 (MCF7 [7]): 62.2 µM

Structure (SMILES): O=C1C(=O)N(CCn2cc(COCCOc3ccc(/C(=C(/CCCl)c4ccccc4)c4ccccc4)cc3)nn2)c2c(Br)cc(Br)cc21
IC50 (MDA-MB-231 [8]): 48.5 µM

Structure (SMILES): CCO/N=C1/C(=O)N(CCCOC2O[C@@H]3O[C@@]4(C)CC[C@H]5[C@H](C)CC[C@@H]([C@H]2C)[C@@]35OO4)c2ccc(F)cc21 (stereo partly drawn)
IC50 (MCF7 [10]): 20.7 µM
IC50 (MCF-10A): > 100 µM
IC50 (MDA-MB-231 [11]): 23.9 µM
selectivity ratio [12]: > 1.3
IC50 (MCF7 [13]): 21.7 µM

Structure (SMILES): Cc1ncc([N+](=O)[O-])n1Cc1cn(CCCCN2C(=O)C(=O)c3cc(Cl)ccc32)nn1
IC50 (HEK293 [14]): 12.1 µM

Structure (SMILES): CCOC(=O)[C@H]1Cc2c([nH]c3ccccc23)CN1Cc1cn(CCCN2C(=O)C(=O)c3ccccc32)nn1
IC50 (MCF7 [15]): 37.4 µM
IC50 (MDA-MB-231 [16]): > 100 µM

Further lines, results first:

IC50 (MCF7 [9]): 10.3 µM
Structure (SMILES): CCOC(=O)[C@H]1Cc2c([nH]c3ccccc23)CN1Cc1cn(CCCOc2ccc(C(=O)/C=C/c3ccc(F)cc3)cc2)nn1

IC50 (MCF7 [15]): 38.5 µM
Structure (SMILES): COc1ccc2c3c([nH]c2c1)[C@]12CC(C)(C)[C@@]4(C(=O)N1CC3)c1[nH]c3cc(OC)ccc3c1CCN24

IC50 (MDA-MB-231 [17]): 22 µM
IC50 (MDA-MB-231 [4]): 22.3 µM
Structure (SMILES): CCOC(=O)[C@H]1Cc2c([nH]c3ccccc23)CN1Cc1cn(CCCCCOc2ccc(C(=O)/C=C/c3cc(OC)c(OC)c(OC)c3)cc2)nn1

Source: ChEMBL document CHEMBL5252593, “Therapeutic significance of molecular hybrids for breast cancer research and treatment” (RSC Med Chem, 2023)
